This passage reports melting point results from a melting point compilation (Tetko et al.; mined from patent text by program, amines drawn as free bases though some values may be those of a salt).

In general, melting point refers to the temperature of the solid-liquid transition. `O=Cc1cc([N+](=O)[O-])c(CCl)cc1O` registered a melting point of 135 °C.

Take `CC(C)(C)OC(=O)COc1ccccc1C=O`: the melting point is 68.6 °C.

In the case of `FC(F)(F)c1cc(Br)c(OCc2ccccc2)c(OCc2ccccc2)c1`, the melting point is 79 to 80 °C.

Regarding `COc1cc(C(C)C)c2c(c1)S(=O)(=O)N(COc1cc(C(F)(F)F)nn1-c1ccccn1)C2=O`, the melting point fell in the range of 132 to 133 °C.

For `CC(=O)N1CCC(c2cc(F)c(C(=O)O)cc2F)CC1`, the melting point lay in the range of 206 to 207 °C.

`CCOCn1c(-c2cc(F)cc(F)c2)c(C#N)c(Br)c1C(F)(F)F` yielded a melting point of 74 to 75 °C.

`COC(=O)c1ccc2nn(-c3cc(C(C)(C)CC(C)(C)C)cc(C(C)(C)c4ccccc4)c3O)nc2c1` yielded a melting point of 141 to 143 °C.

As for `COC(=O)c1cc(C)sc1Nc1ccc(F)cc1[N+](=O)[O-]`, the melting point lay within 149 to 151 °C.

On to `OCC1OC(n2c(Cl)nc3cc(Cl)c(F)cc32)C(O)C1O` (configuration not stated), for which the melting point lay within 170 to 172 °C.

`CC(C)NCCCS(=O)(=O)O` gave a melting point of 240 to 243 °C.

On to `COC(=O)n1nc(C(=O)NC2CN(C)CCN(Cc3ccccc3)C2)c2ccccc21` (configuration not stated), for which the melting point was in the range of 158 to 160 °C.

The compound `CCN(CC)C(=O)c1cc(C(C)(C)C)c(O)c(C(C)(C)C)c1` gave a melting point of 136 to 138 °C.

In turn, `CC1(C)CC(=O)Nc2c(CCN3CCN(c4nsc5ccc(F)cc45)CC3)cc(F)cc21` yielded a melting point of 191 °C.

`Cc1cc(C#N)cnc1C(=O)Nc1ccc(F)c([C@]2(C)CO[C@@](C)(C(F)(F)F)C(N)=N2)c1` showed a melting point of 101 to 102 °C.

With `Cc1ccc(OCCOc2cccc(C)c2)cc1`, the melting point stood at 94 °C.

Regarding `Cc1ccc(C2C3=C(CC(C)(C)CC3=O)NC3=C2C(=O)CC(C)(C)C3)cc1C`, the melting point was greater than 300 °C.

Take `O=C(O)C1CC(O)CN1C(=O)c1ccc2c(c1)OCO2` (configuration not stated): the melting point was determined as 230 °C.

In turn, `CCn1cc(C(=O)C(Cl)Cl)c(=O)c(-c2cccc(C(F)(F)F)c2)c1` showed a melting point of 108 to 110 °C.

Compound `O=C(N[C@H](Cc1ccccc1)C(=O)O)OCc1ccc2oc(-c3ccccc3)cc2c1` displayed a melting point of 173 to 174 °C.

Turning to `CCn1c(=O)c2cc(O)c(O)cc2c2cc(O)c(O)cc21`, the melting point fell in the range of 309 to 310 °C.

`CCc1cc(C)cc(CC)c1CC(=O)O` registered a melting point of 124 °C.

Compound `CCC(C(O)c1ccc(Cl)cc1)n1ncn(-c2ccc(N3CCN(c4ccccn4)CC3)nc2)c1=O` (configuration not stated) came in with a melting point of 171 °C.

`CCNC(=O)Nc1cc(-c2c(-c3ccc(F)c(C)c3)nc3ccc(NC)nn23)ccn1` displayed a melting point of 263 to 264 °C.

For `Nc1ccc(-c2coc3cc(O)c(O)cc3c2=O)cc1`, the melting point lay within 305 to 306 °C.

Compound `Cc1ccc(C(=O)Oc2ccccc2)cc1` yielded a melting point of 74 to 76 °C.

With `Cc1c(CC(=O)O)c2cc(OCc3nc4ccccc4s3)ccc2n1Cc1ccccc1`, the melting point was 186 to 188 °C.

Compound `COc1c(C(C)(C)C)cc(C=O)c(O)c1Br` came in with a melting point of 123 to 124 °C.

Take `CC(=O)N1N=C(c2ccc([N+](=O)[O-])cc2)c2cc3c(cc2C=C1C)OCO3`: the melting point is 205 to 207 °C.

`CCOC(=O)/C=C/c1cc(OCc2ccc(OCc3nc(-c4ccccc4)oc3C)c(OC)c2)nn1-c1ccccc1` registered a melting point of 121 to 122 °C.

As for `CC(=O)N(CC=C=CC=c1c(C)c2c(n(C)c1=O)=NN(c1ccccc1)C2=O)c1ccccc1`, the melting point was greater than 300 °C.

`CCn1cc(C(=O)NCc2ccc(Cl)cc2)c(=O)c2sccc21` came in with a melting point of 189 to 192 °C.

`Cc1ccc(F)cc1C1CC(=O)c2c(C)ccnc2C1` (configuration not stated) registered a melting point of 113 to 114 °C.

Turning to `CN(C)Cc1nnc2n1-c1ccc(Cl)cc1C(c1ccccc1)=NC2`, the melting point lay in the range of 168 to 171 °C.

`O=C1CCCC2=C1C(c1ccc(F)cc1O)C1=C(CCS1)N2` (configuration not stated) gave a melting point greater than 250 °C.

For the compound `CCOc1cc2c(cc1O[Si](C)(C)C(C)(C)C)C(=O)CC1C2CCC2(C)C(O[Si](C)(C)C(C)(C)C)CCC12` (configuration not stated), the melting point fell in the range of 150 to 151 °C.

In turn, `CCCc1c(C(=O)C2CC2)c2ccc(C(N)=O)cc2n1Cc1ccccc1Cl` yielded a melting point of 162 to 164 °C.

In turn, `COc1cc(C(O)c2cnc(Cl)nc2Cl)cc(OC)c1OC` (configuration not stated) came in with a melting point of 115 to 118 °C.

In the case of `CC1CCN(c2ccc(Nc3ncc4c(n3)SCC(=O)N4)cc2)CC1`, the melting point is 278 to 280 °C.

`CSc1ccc2c(SCc3ccc(N(CCO)CCO)cc3)ccnc2c1` returned a melting point of 162 to 165 °C.

`CCc1cccc2c(C=O)cc(OC)c(O)c12` displayed a melting point of 114 to 115 °C.

The compound `CNC(=O)n1nc(Oc2c(F)cc(C(F)(F)F)cc2Cl)cc1C` registered a melting point of 87 to 88 °C.

With `Cc1nc(-c2cccc(NC(=O)N3CCc4c(cnc5[nH]nc(Br)c45)C3)c2)no1`, the melting point is greater than 152 °C.

Regarding `CCCN(CCC)[C@@H]1Cc2c(Br)ccc3c2[C@@H](C1)CN3C(=O)c1ccccc1`, the melting point was 93 °C.

As for `C[C@H](O)CCOc1c(-c2ccc(S(C)(=O)=O)cc2)cnn(-c2ccc(F)c(F)c2)c1=O`, the melting point is 128 to 130 °C.

In the case of `COc1cc(N(C)C)c(Cl)cc1C(=O)NCC1CN(Cc2ccc(C#N)cc2)CCO1` (configuration not stated), the melting point fell in the range of 161 to 163 °C.

The compound `COc1cc(OC)c2c(=O)[nH]c(-c3ccc(OC)c(-c4ccc(C(=O)N(C)C)cc4Cl)c3)nc2c1` showed a melting point greater than 300 °C.

In turn, `O=c1cc(-c2ccc(C(F)(F)F)cc2)cc(C(F)(F)F)o1` registered a melting point of 52 °C.

For the compound `O=c1ccc(-c2c(-c3ccccc3)nn3ccccc23)c[nH]1`, the melting point lay in the range of 222 to 224 °C.

`CC(C)C(NS(=O)(=O)c1ccc(-c2cccc(CNC(=O)c3nc4ccccc4c(=O)[nH]3)c2)cc1)C(=O)NO` (configuration not stated) returned a melting point of 153 to 155 °C.

Take `O=C(O)C(Oc1ccc(Cl)cc1)(C(F)(F)F)C(F)(F)F`: the melting point lay within 81 to 83 °C.

Take `COc1cc(Cc2cnc(N)nc2N)cc(OC)c1N(C)N=O`: the melting point lay within 249 to 250 °C.

`CCOC(=O)C1(I)C=CC(c2ccccc2)=CC1` (configuration not stated) registered a melting point of 105 to 106 °C.

In the case of `Cc1ccc(N)c(C(=O)c2ccccc2)c1`, the melting point lay in the range of 64 to 66 °C.

For `CCCc1c(CNc2ccc(C(=O)O)cc2)ccc(C(C)=O)c1O`, the melting point is 202 to 204 °C.

In the case of `O=C1c2ccncc2C(=O)c2c(F)ccc(O)c21`, the melting point lay in the range of 189 to 192 °C.

In the case of `C#CCS(=O)(=O)c1cc([N+](=O)[O-])ccc1Cl`, the melting point was 238 to 241 °C.

The compound `CNc1ccncc1N` came in with a melting point of 163 to 165 °C.

On to `Cc1c(F)c(N)nc(-n2cc(C(=O)O)c(=O)c3cc(F)c(F)c(Cl)c32)c1F`, for which the melting point lay within 253 to 257 °C.

In turn, `Cn1ccc2c(NC(=O)c3ccccc3O)cccc21` registered a melting point of 211 °C.

In turn, `CCOC(=O)C1=CNC2=C(C(=S)Nc3ccccc3)CCC(C)N2C1=O` (configuration not stated) registered a melting point of 173 to 175 °C.

As for `C/C(=C\c1ccc(C(=O)O)cc1)c1ccc2c(c1)CC(C)(C)CC(C)(C)C2`, the melting point lay within 232 to 235 °C.

`CCOC(=O)c1cc(C)sc1NN=c1c(C(=O)OCC)c[nH]c2ccccc12` yielded a melting point of 173 to 174 °C.

`Cc1cc(C(=O)c2[nH]c3cc(Cl)ccc3c2NC(=O)CC(C)C)ccc1Cl` returned a melting point of 202 to 203 °C.

In turn, `CCCc1nn(C)c2c(=O)n(CCCOc3ccc(OC(C)(C)C(=O)O)cc3)cnc12` came in with a melting point of 136 to 138 °C.

Turning to `COc1cc(C(=O)NCc2ccc(-c3csc(N)n3)s2)cc(OC)c1OC`, the melting point was 217 °C.

Turning to `CCc1cccc(C)c1CNc1cc(C(=O)NC)nc2c1nc(C)n2C`, the melting point was in the range of 236 to 238 °C.

`CNC(=O)N1CCc2[nH]cnc2C1` yielded a melting point of 213 °C.

As to `COc1cc(Nc2nc3cccc(-c4ccc(C(=O)N(C)C)cc4)c3o2)cc(OC)c1OC`, the melting point was greater than 280 °C.

The compound `Cc1ccc(CC2(O)CCN(C(C)C(=O)Nc3ccc(O[Si](C)(C)C(C)(C)C)cc3)CC2)cc1` (racemic) displayed a melting point of 134 to 138 °C.

Compound `CCOc1ccc2ccccc2c1C(=O)N[C@H](Cc1ccc(C(F)(F)F)cc1)[C@H](O)c1ccc(F)cc1` (racemic) displayed a melting point of 157 to 158 °C.

In the case of `Cc1nc2cc(C#N)cc(C#N)c2[nH]1`, the melting point was in the range of 290 to 292 °C.

For the compound `CCOC(=O)c1cccc(Nc2ncnc3[nH]cc(C(=O)c4ccccc4)c23)c1`, the melting point is 256 to 258 °C.

Consider `COC(=O)C12OCC34C(CC5C(C)=C(O)C(=O)CC5(C)C3C(O)C1O)OC(=O)C(OC(=O)C=C(C)C(C)C)C24` (configuration not stated), for which the melting point lay within 220 to 223 °C.

The compound `N#CC(Br)(Br)c1ccccn1` displayed a melting point of 59 to 61 °C.

`CC1(Cl)CSC2C(NC(=O)Cc3ccccc3)C(=O)N2C1C(=O)OCc1ccc([N+](=O)[O-])cc1` (configuration not stated): the melting point was 134 to 136 °C.

On to `CCCN(CCC)C1Cc2cc3c(cc2C1)C(=O)N(c1ccc(C(N)=O)cc1)C3=O`, for which the melting point was in the range of 275 to 276 °C.

The compound `COc1cc(/C=C/C(=O)CC(=O)c2ccccc2)ccc1O` gave a melting point of 159 to 162 °C.

The compound `CCOC(=O)c1cccnc1NC(=O)Cc1cccc(Oc2ccccc2)c1` displayed a melting point of 90 to 91 °C.

`CC(C)(C)OCCOc1cc(N)c([N+](=O)[O-])cc1I` showed a melting point of 144 to 146 °C.

`CCCCCN(CCCCC)C(=O)[C@H]1Cc2c([nH]c3ccccc23)CN1C(=O)Nc1cccc(C)c1`: the melting point is 154 to 155 °C.

`COc1cc2c(cc1Nc1ncc(Cl)c(Nc3ccccc3OCC#N)n1)CCN(CC(=O)N(C)C)CC2` came in with a melting point of 77 to 93 °C.

`O=C(NCO)c1cccc(Oc2ccccc2)c1`: the melting point was in the range of 112 to 113 °C.

Consider `CCOC(=O)C1(c2cccc(Cl)c2C)CCN(S(=O)(=O)c2ccc(C)cc2)CC1`, for which the melting point came out at 134 °C.

`O=C(Nc1ccccc1)C(=O)N1CCC(Cc2ccccc2)CC1` registered a melting point of 125 to 128 °C.

`CC(=O)OC(COc1ccc(C(=O)O)cc1)c1cc2cc(C(C)C)ccc2o1` (configuration not stated) registered a melting point of 135 to 137 °C.

Consider `C=C(C)C(=O)OCCOc1ccc(C(=O)O)cc1`, for which the melting point stood at 146 °C.

In the case of `O=C(c1ccccc1SSc1ccccc1C(=O)N1CCOCC1)N1CCOCC1`, the melting point was 103 to 110 °C.
